Laboratory results as given in patent publication EP4549575A1 (priority 2023, dated 2025).
pEC50: −log10 of the molar value. “Also recorded” adds a separate entry of the source. Read-outs that look alike come from different tables or passages of the source. Square brackets hold non-standard residues; d marks the D form. Ends that are not written are not given here. Peptide text beside a SMILES is read from it. βAla = NCCC(=O)O

Tests used:
[1] = tested on: P. viticola; assay type: in vivo, Plasmopara viticola (Berk. et Curt.) Berl. and De Toni; settings: grapevine (Vitis vinifera cv. Pinot noir) leaf discs; mean ± standard deviation vs untreated control; concentration not given
[2] = tested on: P. infestans; assay type: cell-based; settings: 10 mg/l; PAM agar; mycelium plug; 3-4 days; positive control
[3] = tested on: P. capsici; assay type: cell-based, Phytophthora capsici Leonian
[4] = tested on: P. infestans; assay type: cell-based; settings: 10 mg/l; Pea Broth; sporangia; OD620, 72 h; positive control
[5] = Chemical-physical properties (isoelectric point, net charge, solubility in water); assay type: physicochemical; settings: for net charge: at pH 7
[6] = tested on: pronase; experiment: Stability towards proteolysis (pronase, LC-MS); assay type: in vitro ADME, Streptomyces griseus; settings: peptide 200 µM, protease 5 µg/mL, 37°C, pH 7.5; for stability against proteolysis: 0-2 h
Description: The evaluation of the stability of CP20 and Ac-LP20 towards proteolysis was tested at a peptide concentration of 200 µM using pronase (commercially available mixture of proteases isolated from the extracellular fluid of Streptomyces griseus, 2.5 µg/mg). Another peptide was added to this analysis, namely LP20 (without N-terminal acetylation), as it is easier to synthesize and to also assess the influence of N-terminal acetylation on the stability of LP20. Each peptide was tested in the presence of the protease (5 µg/mL) at 37°C in a buffer solution (50 mM Tris, 10 mM CaCl2, 150 mM NaCl, 0.05 % (w/v) Brij 35, pH 7.5) and its stability monitored by liquid chromatography coupled to mass spectrometry (LC-MS) at different time intervals (t=0 min, 10 min, 30 min, 1 h, 2 h). To stop enzyme activity, a small amount of the solution (60 µL) was transferred to an HPLC vial containing 6 µL of a 10% TFA solution at these different time points.

[7] = Conformational studies based on circular dichroism; assay type: physicochemical
Description: Conformational studies based on circular dichroism were performed under different conditions, such as: • 10 mM phosphate buffer, pH 7 • MES buffer 10 mM, pH 6 • Buffer acetate 10 mM, pH 5 • Phosphate buffer 10 mM/TFE (1:1) • TFE (trifluoroethanol)
Conformational studies based on circular dichroism were performed under different conditions such as: • 10 mM phosphate buffer, pH7 • Phosphate buffer 10mM/TFE, pH7 (1:1) • TFE (trifluoroethanol)
Conformational studies based on circular dichroism were performed under different conditions, such as: • 10 mM phosphate buffer, pH7 • MES buffer 10 mM, pH6 • Buffer acetate 10 mM, pH5 • Phosphate buffer 10 mM/TFE, pH7 (1:1) • TFE (trifluoroethanol)
Conformational studies based on circular dichroism were performed under different conditions, such as: • 10 mM phosphate buffer, pH7 • 10mM phosphate buffer/TFE (1:1) • TFE (trifluoroethanol)

[8] = tested on: P. infestans; assay type: cell-based; settings: for PPI: solid medium, linear vs cyclic peptides (Figure 8); for PPI (%) ± dev. std (Solid medium): peptide 200 µM, PAM agar, mycelium plug, 3-4 days, vs untreated control
[9] = tested on: Saccharomyces cerevisiae; experiment: Specificity: growth in liquid culture (OD620); assay type: cell-based; settings: 200 µM; YEPD medium; measured hourly up to 5 h
Description: (§1) The specificity of antimicrobial molecules is a key aspect in their development, as good degrees of specificity result in the absence of toxicity to other organisms in the environment such as animals, plants, fungi, bacteria, yeasts, livestock and humans. Therefore, initial assays were carried out to assess the toxicity profiles of CP20 and CP32, similar to those reported in Colombo et al.. For this purpose, the two cyclic peptides were added at a concentration of 200 µM to liquid cultures of the following microorganism species: • (i) Agrobacterium tumefaciens GV3101, (ii) Escherichia coli DH5α and (iii) Saccharomyces cerevisiae. The culture media used were respectively Luria-Bertani (LB) for the bacterial cultures, while Yeast Extract Peptone Dextrose (YEPD) medium was used for S. cerevisiae. Growth was measured hourly (up to 5 h) using a spectrophotometer (OD620).

[10] = tested on: Escherichia coli DH5α; experiment: Specificity: growth in liquid culture (OD620); assay type: cell-based; settings: 200 µM; LB medium; measured hourly up to 5 h
Description: as §1

[11] = tested on: P. infestans; assay type: in vivo; settings: tomato (Solanum lycopersicum, cv. Marmande) leaf discs; co-inoculation with sporangia; 5-7 days; reference concentration 200 µM
[12] = tested on: P. infestans; settings: for PGI (%) ± dev. std (Liquid medium): peptide 200 µM, Pea Broth, sporangia, OD620, 72 h, vs untreated control
[13] = tested on: pronase; experiment: pronase (commercially available mixture of proteases isolated from the extracellular fluid of Streptomyces griseus, 2.5 µg/mg) in buffer solution (50 mM Tris, 10 mM CaCl2, 150 mM NaCl, 0.05 % (w/v) Br); settings: 37°C, up to 2 h
[14] = tested on: P. ultimum; assay type: cell-based, Pythium ultimum var. ultimum Trow; settings: PDA agar, mycelium; mean ± standard deviation vs untreated control; concentration not given
[15] = pH 7-TFE: phosphate buffer 10 mM/TFE (1:1)
[16] = from PGI values at 0.02-200 µM, three-parameter logistic model

C#CCOc1ccc(CCNC(=O)C(OCC#C)c2ccc(Cl)cc2)cc1OC (stereo not shown) [Mandipropamid, mandipropamid]
P. viticola (IPP - %) [1]: 100 ± 0 (a) % | PPI (%) ± dev. std (Solid medium) [2]: 100.00 ± 0 (a) % | P. capsici (PIC - %) [3]: 100 ± 0 (a) % | PGI (%) ± dev. std (Liquid medium) [4]: 100.00 ± 0 (a) %

CSCC[C@H](NC(=O)[C@H](Cc1c[nH]c2ccccc12)NC(=O)[C@H](CCCNC(=N)N)NC(=O)CCNC(C)=O)C(=O)N[C@@H](CC(C)C)C(=O)N[C@H](C(=O)N[C@@H](Cc1ccc(O)cc1)C(=O)N[C@@H](CCCNC(=N)N)C(=O)N[C@@H](CCCNC(=N)N)C(N)=O)C(C)C [Ac-LP20, Ac-βA -R-W-M-L-V-Y-R-R-CONH2] (Ac-[βAla]RWMLVYRR-NH2)
isoelectric point [5]: 12.4 pH | net charge [5]: +3 | solubility in water [5]: good solubility in water | time of total proteolysis of the peptide [6]: 10 min | stability against proteolysis [6]: Low stability | Disordered (%) ([7]; 10 mM phosphate buffer, pH 7): 37% | Helixes (%) ([7]; 10 mM phosphate buffer, pH 7): 5% | Sheets (%) ([7]; 10 mM phosphate buffer, pH 7): 36% | Turns (%) ([7]; 10 mM phosphate buffer, pH 7): 22% | Disordered (%) ([7]; MES buffer 10 mM, pH 6): 33% | Helixes (%) ([7]; MES buffer 10 mM, pH 6): 6% | Sheets (%) ([7]; MES buffer 10 mM, pH 6): 40% | Turns (%) ([7]; MES buffer 10 mM, pH 6): 21% | Disordered (%) ([7]; TFE (trifluoroethanol)): 31% | Helixes (%) ([7]; TFE (trifluoroethanol)): 19% | Sheets (%) ([7]; TFE (trifluoroethanol)): 27% | Turns (%) ([7]; TFE (trifluoroethanol)): 23% | Disordered (%) ([7]; acetate buffer 10 mM, pH 5): 36% | Helixes (%) ([7]; acetate buffer 10 mM, pH 5): 7% | Sheets (%) ([7]; acetate buffer 10 mM, pH 5): 35% | Turns (%) ([7]; acetate buffer 10 mM, pH 5): 22% | Disordered (%) [7, 15]: 29% | Helixes (%) [7, 15]: 18% | Sheets (%) [7, 15]: 29% | Turns (%) [7, 15]: 24% | PPI (%) mycelium ([8]; Ala-scan of Ac-LP20 and CP20-Met-Ala, P. infestans mycelium in vitro): 78.80 ± 4.07%

CSCC[C@@H]1NC(=O)[C@H](Cc2c[nH]c3ccccc23)NC(=O)[C@H](CCCNC(=N)N)NC(=O)CCNC(=O)[C@H](CCCNC(=N)N)NC(=O)[C@H](CCCNC(=N)N)NC(=O)[C@H](Cc2ccc(O)cc2)NC(=O)[C@H](C(C)C)NC(=O)[C@H](CC(C)C)NC1=O [CP20, βA-R-W-M-L-V-Y-R-R] (cyclo(LVYRR[βAla]RWM))
growth inhibition (OD620) [9]: no growth inhibition | bacterial growth (OD620) [10]: no alteration in bacterial growth | time after which cleavage was observed in the presence of protease [6]: 2 h | stability against proteolysis [6]: good stability against proteolysis | PPI (%) ± Std. Dev. ([8]; 200 µM, P. infestans mycelium, peptidomimetics): 92.39 ± 2.17 (a) % | PPI ([8]; 200 µM, P. infestans mycelium): 89.53% | PPI (%) ± dev. std (Solid medium) [8]: 88.99 ± 7.56 (b) % | Percentage Protection Index for the leaf discs (PPI), reduction in symptoms [11]: 88.64% | EC99 [12, 16]: 68.37 µM | PGI (%) ± dev. std (Liquid medium) [12]: 86.19 ± 8.66 (b) %

[βAla]GRLRWLRV [LP32]
cleaved bond [13]: Trp-Leu7, first_seen, immediately, after mixing protease with peptide solution; also recorded: Leu4-Arg5, 10 min; also recorded: Arg5-Trp, 10 min; also recorded: Leu7-Arg8, 10 min; also recorded: Arg8-Val, 10 min

COCC(=O)N(c1c(C)cccc1C)[C@H](C)C(=O)OC [Metalaxyl-M]
P. ultimum (IPP - %) [14]: 100 ± 0 (a) %

[βAla]RWMLVYRR [LP20]
cleaved bond [13]: Met4-Leu, first_seen, t0; also recorded: Arg2-Trp3, 10 min; also recorded: Trp3-Met4, 10 min

CC(=O)NCCC(=O)NCC(=O)N[C@@H](CCCNC(=N)N)C(=O)N[C@@H](CC(C)C)C(=O)N[C@@H](CCCNC(=N)N)C(=O)N[C@@H](Cc1c[nH]c2ccccc12)C(=O)N[C@@H](CC(C)C)C(=O)N[C@@H](CCCNC(=N)N)C(=O)N[C@H](C(N)=O)C(C)C [Ac-LP32, Ac-βA -G-R-L-R-W-L-R-V-CONH2] (Ac-[βAla]GRLRWLRV-NH2)
isoelectric point [5]: 14 pH | net charge [5]: +3 | solubility in water [5]: good solubility in water | time of total proteolysis of the peptide [6]: 10 min | stability against proteolysis [6]: low stability | Disordered (%) ([7]; 10 mM phosphate buffer, pH 7): 44% | Helixes (%) ([7]; 10 mM phosphate buffer, pH 7): 5% | Sheets (%) ([7]; 10 mM phosphate buffer, pH 7): 33% | Turns (%) ([7]; 10 mM phosphate buffer, pH 7): 18% | Disordered (%) ([7]; TFE (trifluoroethanol)): 51% | Helixes (%) ([7]; TFE (trifluoroethanol)): 5% | Sheets (%) ([7]; TFE (trifluoroethanol)): 30% | Turns (%) ([7]; TFE (trifluoroethanol)): 14% | Disordered (%) [7, 15]: 47% | Helixes (%) [7, 15]: 5% | Sheets (%) [7, 15]: 30% | Turns (%) [7, 15]: 18% | PPI (%) micelio ([8]; Ala-scan of Ac-LP32, P. infestans mycelium in vitro): 70.23 ± 3.84%

CC(C)C[C@@H]1NC(=O)[C@H](CCCNC(=N)N)NC(=O)CNC(=O)CCNC(=O)[C@H](C(C)C)NC(=O)[C@H](CCCNC(=N)N)NC(=O)[C@H](CC(C)C)NC(=O)[C@H](Cc2c[nH]c3ccccc23)NC(=O)[C@H](CCCNC(=N)N)NC1=O [CP32, βA-G-R-L-R-W-L-R-V] (cyclo(GRLRWLRV[βAla]))
growth inhibition (OD620) [9]: no growth inhibition | bacterial growth (OD620) [10]: no alteration in bacterial growth | time of total proteolysis of the peptide [6]: 30 min | stability against proteolysis [6]: more stable against proteolysis than its linear analogues | PPI ([8]; 200 µM, P. infestans mycelium): 87.44% | PPI (%) ± dev. std (Solid medium) [8]: 87.93 ± 9.47 (b) % | Percentage Protection Index for the leaf discs (PPI), reduction in symptoms [11]: 90.03% | pEC50 [12, 16]: 4.80 | EC99 [12, 16]: 56.18 µM | PGI (%) ± dev. std (Liquid medium) [12]: 90.61 ± 10.87 (b) %

[βAla]GRLRWLRV [CP32]
cleaved bond [13]: βAla-Gly, first_seen, After mixing protease with peptide solution; also recorded: Leu7-Arg8, first_seen, After mixing protease with peptide solution; also recorded: Arg8-Val; also recorded: Leu4-Arg5, 10 minutes; also recorded: Arg5-Trp, 10 minutes; also recorded: Trp-Leu7, 10 minutes

Ac-[βAla]RWMLVYRR-NH2
cleaved bond [13]: Met4-Leu, first_seen, t0; also recorded: Arg2-Trp3, 10 min; also recorded: Trp3-Met4, 10 min
